Experiments:
[1] = test system: Vero cells; assay: Cytotoxicity in Vero cells; type: cell-based, African green monkey; settings: 3 days, hemacytometer; for IC50: read-out: Cytotoxicity IC50 VERO cells
[2] = test system: PBM cells; assay: Cytotoxicity in uninfected PHA-stimulated PBM cells; type: cell-based, human; settings: 6 days, cell growth, trypan blue exclusion
[3] = as above; type: cell-based, human; settings: human, uninfected PHA-stimulated PBM cells
[4] = Cytotoxicity in CEM cells; type: cell-based; settings: human, CEM (CEM-CCRF) T-lymphoblastoid cells
[5] = Cytotoxicity in Vero cells; type: cell-based, African green monkey; settings: African green monkey, Vero (kidney) cells

Which IC50 [1] does the source give for O=c1ccn([C@H]2C=C[C@@H](COP(=O)(O)OC[C@H]3OC(O)[C@H](O)[C@@H](O)[C@@H]3O)O2)c(=O)[nH]1 (stereo partly drawn) [10a, 2′,3′-Didehydro-2′,3′-dideoxyuridine 5′-(α/β-D-glucopyranos-6-yl) phosphate] here?
The IC50 was > 100 µM.

With Cc1cn([C@H]2C=CC(COP(=O)(O)OC[C@H]3O[C@H](O)[C@H](O)[C@@H](O)[C@@H]3O)O2)c(=O)[nH]c1=O (stereo partly drawn) [10b, 2′,3′-Didehydro-2′,3′-dideoxythymidine 5′-(α/β-D-glucopyranos-6-yl) phosphate] as the molecule, how does the “Cytotoxicity IC50 VERO cells” value [1] read?
Its value is “no cytotoxicity”.

What about the IC50 [1] of the same molecule?
The IC50 was > 100 µM.

And the “Cytotoxicity IC50 PBM cells” value [2]?
The value was “no cytotoxicity”.

For O=c1[nH]c(=O)n([C@H]2C[C@H](O)[C@@H](COP(=O)(O)OC[C@H]3OC(O)[C@H](O)[C@@H](O)[C@@H]3O)O2)cc1I (stereo partly drawn) [10c, 2′-Deoxy-5-iodouridine 5′-(α/β-D-glucopyranos-6-yl) phosphate], which IC50 [1] is on record?
The IC50 was > 100 µM.

For O=c1[nH]c(=O)n([C@H]2C[C@H](OP(=O)(O)OC[C@H]3O[C@H](O)[C@H](O)[C@@H](O)[C@@H]3O)[C@@H](CO)O2)cc1I [10d, 2′-Deoxy-5-iodouridine 3′-(α/β-D-glucopyranos-6-yl) phosphate], which IC50 [1] is on record?
Its IC50 is > 100 µM.

Which IC50 [1] does the source give for O=c1[nH]cnc2c1ncn2[C@H]1CC[C@@H](COP(=O)(O)OC[C@H]2OC(O)[C@H](O)[C@@H](O)[C@@H]2O)O1 (stereo partly drawn) [10e, 2′,3′-Dideoxyinosine 5′-(α/β-D-glucopyranos-6-yl) phosphate] here?
Its IC50 is > 100 µM.

For Nc1ncnc2c1ncn2[C@H]1CC[C@@H](COP(=O)(O)OC[C@H]2OC(O)[C@H](O)[C@@H](O)[C@@H]2O)O1 (stereo partly drawn) [10f, 2′,3′-Dideoxyadenosine 5′-(α/β-D-glucopyranos-6-yl) phosphate], which IC50 [1] is on record?
Its IC50 is 73.2 µM.

For NC(=O)c1ncn([C@@H]2O[C@H](COP(=O)(O)OC[C@H]3OC(O)[C@H](O)[C@@H](O)[C@@H]3O)[C@@H](O)[C@H]2O)n1 (stereo partly drawn) [10g, 1′-(3-Carbamoyl-1,2,4-triazoyl)-β-D-ribofuranose 5′-(α/β-D-glucopyranos-6-yl) phosphate], which IC50 [1] is on record?
Its IC50 is > 100 µM.

For Nc1ncnc2c1ncn2[C@@H]1O[C@H](COP(=O)(O)OC[C@H]2OC(O)[C@H](O)[C@@H](O)[C@@H]2O)[C@@H](O)[C@@H]1O (stereo partly drawn) [10h, 1′-Adeninyl-β-D-arabinofuranose 5′-(α/β-D-glucopyranos-6-yl) phosphate], which IC50 [1] is on record?
The IC50 was > 100 µM.

Which IC50 [1] does the source give for Nc1ccn([C@@H]2O[C@H](COP(=O)(O)OC[C@H]3OC(O)[C@H](O)[C@@H](O)[C@@H]3O)[C@@H](O)[C@@H]2O)c(=O)n1 (stereo partly drawn) [10i, 1′-Cytosinyl-β-D-arabinofuranose 5′-(α/β-D-glucopyranos-6-yl) phosphate] here?
The IC50 was < 1 µM.

Which IC50 at 6 days [3] does the source give for Cc1cn([C@H]2C[C@H](N=[N+]=[N-])[C@@H](CO)O2)c(=O)[nH]c1=O [AZT, zidovudine] here?
The IC50 at 6 days was > 100 µM.

With Nc1ncnc2c1ncn2[C@@H]1O[C@H](CO)[C@@H](O)[C@@H]1O [Ara-A, ara-adenosine] as the molecule, how does the IC50 at 6 days [4] read?
Its IC50 at 6 days is 26.2 µM.

What about the IC50 at 3 days [5] of the same molecule?
Its IC50 at 3 days is > 100 µM.

And the IC50 at 6 days [3]?
The IC50 at 6 days was 26 µM.

Which IC50 at 6 days [4] does the source give for Nc1ccn([C@@H]2O[C@H](CO)[C@@H](O)[C@@H]2O)c(=O)n1 [Ara-C, Ara-cytidine] here?
Its IC50 at 6 days is < 0.1 µM.

What about the IC50 at 6 days [3] of the same molecule?
The IC50 at 6 days was 57 µM.

For O=c1[nH]c(=O)n([C@H]2C[C@H](O)[C@@H](CO)O2)cc1I [IdUrd], which IC50 [1] is on record?
Its IC50 is > 100 µM.

Which IC50 at 6 days [4] does the source give for NC(=O)c1ncn([C@@H]2O[C@H](CO)[C@@H](O)[C@H]2O)n1 [Virazole] here?
The IC50 at 6 days was 53 µM.

What about the IC50 at 3 days [5] of the same molecule?
Its IC50 at 3 days is > 100 µM.

What about the IC50 at 6 days [3] of the same molecule?
The IC50 at 6 days was > 100 µM.

Which IC50 [1] does the source give for Cc1cn([C@H]2C=C[C@@H](CO)O2)c(=O)[nH]c1=O [d4T] here?
The IC50 was > 100 µM.

Which IC50 [1] does the source give for O=c1ccn([C@H]2C=C[C@@H](CO)O2)c(=O)[nH]1 [d4U] here?
The IC50 was > 100 µM.

With Nc1ncnc2c1ncn2[C@H]1CC[C@@H](CO)O1 [ddA] as the molecule, how does the IC50 [1] read?
The IC50 was > 100 µM.

With O=c1[nH]cnc2c1ncn2[C@H]1CC[C@@H](CO)O1 [ddI] as the molecule, how does the IC50 [1] read?
The IC50 was > 100 µM.

Source: article PMC3070195 (Bioconjugate chemistry, 2010)
